The subject of data set [1] is tactile allodynia in the rat Chung model (L5/L6 spinal nerve ligation). The data set can be described thus: Chung model: reversal of tactile allodynia (von Frey hairs) after spinal nerve ligation. In kind it is in vivo. As to conditions: read-out: Peak % Pain reversal: time post dose; for inhibition in vivo at 0.3 mg/kg: 300 μg/kg IP; for inhibition in vivo at 1 mg/kg: 1000 μg/kg IP. The text has this:
An art-accepted model or assay for measuring an analgesic effect of a compound in chronic pain (in particular peripheral neuropathy) is the model known as Kim and Chung 1992, Pain […], pp 355-363 (Chung model). This model involves the surgical ligation of the L5 (and optionally the L6) spinal nerves on one side in experimental animals. Rats recovering from the surgery gain weight and display a level of general activity similar to that of normal rats. However, these rats develop abnormalities of the foot, wherein the hindpaw is moderately everted and the toes are held together. More importantly, the hindpaw on the side affected by the surgery appears to become sensitive to low-threshold mechanical stimuli and will perceive pain instead of the faint sensation of touch. This sensitivity to normally non-painful touch, called “tactile allodynia”, develops within the first week after surgery and lasts for at least two months. The allodynia response includes lifting the affected hindpaw to escape from the stimulus, licking the paw and holding it in the air for many seconds. None of these responses is normally seen in the control group.
To produce the tactile allodynia, rats are anesthetized before surgery. The surgical site is shaved and prepared either with betadine or Novacaine. Incision is made from the thoracic vertebra Xlll down toward the sacrum. Muscle tissue is separated from the spinal vertebra (left side) at the L4-S2 levels. The L6 vertebra is located and the transverse process is carefully removed with a small rongeur to expose the L4-L6 spinal nerves. The L5 and L6 spinal nerves are isolated and tightly ligated with 6-0 silk thread. The same procedure is done on the right side as a control, except no ligation of the spinal nerves is performed.
After a complete hemostasis is confirmed, the wounds are sutured. A small amount of antibiotic ointment is applied to the incised area, and the rat is transferred to the recovery plastic cage under a regulated heat-temperature lamp.
On the day of the experiment, at least seven days after the surgery, typically six rats per test group are administered the test drugs by intraperitoneal (i.p.) injection or oral gavage (p.o.). For i.p. administration, the compounds are formulated in H2O and given in a volume of 1 ml/kg body weight by injecting into the intraperitoneal cavity. For p.o. administration, the compounds are formulated in H2O and given in a volume of 1 ml/kg body weight using an 18-gauge, 3 inch gavage needle that is slowly inserted through the esophagus into the stomach.
Tactile allodynia is assessed via von Frey hairs, which are a series of fine hairs with incremental differences in stiffness. Rats are placed in a plastic cage with a wire mesh bottom and allowed to acclimate for approximately 30 minutes. To establish the pre-drug baseline, the von Frey hairs are applied perpendicularly through the mesh to the mid-plantar region of the rats' hindpaw with sufficient force to cause slight buckling and held for 6-8 seconds. The applied force has been calculated to range from 0.41 to 15.1 grams. If the paw is sharply withdrawn, it is considered a positive response. A normal animal will not respond to stimuli in this range, but a surgically ligated paw will be withdrawn in response to a 1-2 gram hair. The 50% paw withdrawal threshold is determined using the method of Dixon, W. J., Ann. Rev. Pharmacol. Toxicol. 20:441-462 (1980) hereby incorporated by reference. Tactile allodynia is measured prior to and 15, 30, and 60 minutes after drug administration. The post-drug threshold is compared to the pre-drug threshold and the percent reversal of tactile sensitivity is calculated based on a normal threshold of 15.1 grams.
Table 1 below indicates the degree of pain reversal obtained in the Chung model with exemplary compounds used in accordance with the invention. […]

The target in the next data set is T1, GlcCer synthase (GCS) (Homo sapiens, UniProt Q16739).
T1 sequence (Q16739 1-394): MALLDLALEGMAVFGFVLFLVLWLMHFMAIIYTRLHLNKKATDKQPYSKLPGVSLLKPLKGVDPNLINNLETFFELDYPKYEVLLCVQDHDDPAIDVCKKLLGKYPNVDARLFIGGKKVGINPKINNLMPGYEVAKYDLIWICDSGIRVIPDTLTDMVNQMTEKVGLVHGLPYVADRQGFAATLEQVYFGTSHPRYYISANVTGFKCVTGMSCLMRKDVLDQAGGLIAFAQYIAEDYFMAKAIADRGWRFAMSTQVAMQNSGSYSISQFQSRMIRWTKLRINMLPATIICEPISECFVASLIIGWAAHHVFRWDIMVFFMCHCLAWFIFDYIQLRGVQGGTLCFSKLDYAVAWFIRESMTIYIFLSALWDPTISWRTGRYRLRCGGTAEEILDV
As to conditions: cited from earlier work.

A further data set has as its system synaptic function. As to conditions: cited from earlier work.
Data set [2] deals with glycosphingolipid biosynthesis. The settings on record: via inhibition of glycosphingolipid biosynthesis; cited from earlier work.
The subject of data set [3] is transient forebrain ischemia in rats. The settings on record: treatment after transient forebrain ischemia in rats; 8-arm maze task; cited from earlier work.
The mark [4] stands for this setting: 1 h, 30 μg/kg IP, peak at 60 min post dose.

Structures can show the parent of a compound that is named as a salt. Where two headings read alike, the source gives them in different places.

`N[C@@H](CN1CCOCC1)[C@@H](O)c1ccccc1` (as salt: hydrochloride) [Compound 2, L-threo-2-Amino-3-morpholino-1-phenylpropan-1-ol dihydrochloride] displayed a melting point of 166.4 to 170.9 °C.

Turning to `N[C@@H](CN1CCCC1)[C@@H](O)c1ccc2c(c1)OCCO2` (racemic) [Compound 6, DL-threo-2-Amino-1-(2,3-dihydrobenzo[b][1,4]dioxin-6-yl)-3-(pyrrolidin-1-yl)propan-1-ol], the inhibition in vivo at 0.03 mg/kg in data set [1] (setting [4]) is 92%.

On to `CCCCCCCCCC(=O)N[C@@H](CN1CCCC1)[C@@H](O)c1ccc2c(c1)OCCO2` (racemic) [Compound 7, N-(DL-threo-1-(2,3-dihydrobenzol[b][1,4]dioxin-6-yl)-1-hydroxy-3-(pyrrolidin-1-yl)propan-2-yl)decanamide], for which, in data set [1] (0.5 h, 1 μg/kg IP, peak at 30 min post dose), the inhibition in vivo at 0.001 mg/kg was 26%.

With `COc1ccc([C@H](O)[C@@H](N)CN2CCCC2)cc1` (racemic) [Compound 9, DL-threo-2-Amino-1-(4-methoxyphenyl)-3-(pyrrolidin-1-yl)propan-1-ol], the inhibition in vivo at 0.03 mg/kg in data set [1] (setting [4]) was 88%.

As for `N[C@@H](C(=O)N1CCCC1)[C@@H](O)c1ccc(Cl)c(Cl)c1` (racemic) [Compound 15, DL-threo-2-Amino-3-(3,4-dichlorophenyl)-3-hydroxy-1-(pyrrolidin-1-yl)propan-1-one hydrochloride], the inhibition in vivo at 0.3 mg/kg in data set [1] (1 h, peak at 60 min post dose) came out at 42%.

As to `N[C@@H](C(=O)N1CCCC1)[C@@H](O)c1ccccc1` (racemic) [Compound 16, DL-threo-2-Amino-3-hydroxy-3-phenyl-1-(pyrrolidin-1-yl)propan-1-one hydrochloride], the inhibition in vivo at 0.3 mg/kg in data set [1] (1 h, peak at 60 min post dose) stood at 93%.

`Cc1ccc([C@H](O)[C@@H](N)C(=O)N2CCCC2)cc1` (racemic) [Compound 17, DL-threo-2-Amino-3-hydroxy-1-(pyrrolidin-1-yl)-3-p-tolylpropan-1-one hydrochloride]: in data set [1] (1 h, peak at 60 min post dose), the inhibition in vivo at 0.3 mg/kg stood at 100%.

With `CCCCCCCCCC(=O)N[C@@H](CN1CCOCC1)[C@H](O)c1ccccc1` (racemic) [DL-erythro-PDMP, 1-Phenyl-2-decanoylamino-3-morpholino-1-propanol, reference compound], the inhibition in vivo at 1 mg/kg in data set [1] (0.5 h, peak at 30 min post dose) was 68%.

Take `N[C@@H](CN1CCOCC1)[C@@H](O)c1ccccc1` [Compound 2, L-threo-2-Amino-3-morpholino-1-phenylpropan-1-ol dihydrochloride]: in data set [1] (1 h, 100 μg/kg IP, peak at 60 min post dose), the inhibition in vivo at 0.1 mg/kg came to 91%.

As for `C[C@H](N[C@H](CN1CCOCC1)[C@H](O)c1ccccc1)c1ccccc1` [Compound 5, D-threo-2-((S)-1-Phenylethylamino)-3-morpholino-1-phenylpropan-1-ol dihydrochloride], the inhibition in vivo at 0.3 mg/kg in data set [1] (1 h, peak at 60 min post dose) was 85%.

In the case of `CCCCCCCCCCCCCCCC(=O)N[C@H](CN1CCCC1)[C@H](O)c1ccc(O)cc1` [D-threo-4′-hydroxy-P4], the “inhibition of GCS” value at GlcCer synthase (GCS) is given as “one of the most potent inhibitor of GCS”.

As to `CCCCCCCCCC(=O)N[C@H](CN1CCOCC1)[C@H](O)c1ccccc1` [D-threo-PDMP, 1-Phenyl-2-decanoylamino-3-morpholino-1-propanol], in data set [1] (1 h, peak at 60 min post dose), the inhibition in vivo at 1 mg/kg was determined as 77%. In the data set with synaptic function, the “effect on synaptic function” value is on record as “suppresses synaptic function”. In addition, the antitumor activity entry in data set [2] is listed as “has antitumor activity”.

On to `CCCCCCCCCC(=O)N[C@@H](CN1CCOCC1)[C@@H](O)c1ccccc1` [L-threo-PDMP, (1S,2S)-1-phenyl-2-decanoylamino-3-morpholino-1-propanol, reference compound], for which, in data set [1] (0.5 h, 30 μg/kg PO, peak at 30 min post dose), the inhibition in vivo at 0.03 mg/kg worked out at 100%. The “deficit of a well learned spatial memory” value in data set [3] was “ameliorated the deficit”.

`O=C(N[C@H](CN1CCCC1)[C@H](O)c1ccccc1)OCc1ccccc1` [PBPP, D-threo-1-phenyl-2-benzyloxycarbonylamino-3-pyrrolidino-1-propanol]: at GlcCer synthase (GCS), the “inhibition of GCS” value is recorded as “potent GCS inhibitor”.

The values above are taken from patent US9278943B2, “Methods of using as analgesics 1-benzyl-1-hydroxy-2, 3-diamino-propyl amines, 3-benzyl-3-hydroxy-2-amino-propionic acid amides and related compounds” (Exonhit Therapeutics SA, priority 2005, dated 2016).
